Experimental data published in paper PMC6501587 (The Journal of neuroscience : the official journal of the …, 2009).
Where a chain is given by its changes, count along the chain named. Read-outs that look alike come from different tables or passages of the source.

How the values were obtained:
P2X2bR [1] = molecular target: T1, P2X2bR (Rattus norvegicus, UniProt P49653, DEL370-438); assay type: cell-based; conditions: oocytes
T1 sequence (P49653 with tags, fused parts or gaps DEL370-438): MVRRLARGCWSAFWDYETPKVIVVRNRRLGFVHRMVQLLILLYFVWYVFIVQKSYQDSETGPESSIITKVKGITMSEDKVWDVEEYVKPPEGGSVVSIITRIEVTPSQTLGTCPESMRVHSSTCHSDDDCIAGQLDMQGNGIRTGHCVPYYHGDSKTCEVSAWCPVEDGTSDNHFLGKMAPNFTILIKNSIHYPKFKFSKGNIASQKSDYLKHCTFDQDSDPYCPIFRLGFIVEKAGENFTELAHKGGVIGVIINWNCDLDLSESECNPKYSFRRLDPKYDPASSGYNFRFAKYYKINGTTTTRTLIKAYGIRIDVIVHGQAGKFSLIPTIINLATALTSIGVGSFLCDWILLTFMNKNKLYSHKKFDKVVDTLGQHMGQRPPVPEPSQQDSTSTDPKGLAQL

P2X2aR [2] = molecular target: T2, P2X2aR (Rattus norvegicus, UniProt P49653); test: ATP-evoked currents, whole-cell patch clamp, HEK293 cells expressing P2X2aR; assay type: cell-based
T2 sequence (P49653 1-472): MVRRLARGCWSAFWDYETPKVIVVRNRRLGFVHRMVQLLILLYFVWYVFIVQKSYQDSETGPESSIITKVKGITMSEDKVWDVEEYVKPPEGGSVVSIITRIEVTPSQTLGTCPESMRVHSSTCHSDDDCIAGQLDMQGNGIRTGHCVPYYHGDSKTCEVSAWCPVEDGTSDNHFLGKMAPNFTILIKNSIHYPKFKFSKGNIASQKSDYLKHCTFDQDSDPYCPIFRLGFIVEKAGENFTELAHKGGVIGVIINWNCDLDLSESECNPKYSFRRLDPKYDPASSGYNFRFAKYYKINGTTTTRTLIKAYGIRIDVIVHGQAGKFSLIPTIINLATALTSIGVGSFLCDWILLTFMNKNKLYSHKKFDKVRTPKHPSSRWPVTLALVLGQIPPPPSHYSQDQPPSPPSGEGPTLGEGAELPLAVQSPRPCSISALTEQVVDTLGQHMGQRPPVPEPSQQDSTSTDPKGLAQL

P2X2R = conditions: after application; ref Mason et al. (2004); cited from earlier work
P2X2bR [3] = molecular target: T1, P2X2bR; assay type: cell-based; conditions: HEK293 cells
P2X2aR [4] = molecular target: T2, P2X2aR; assay type: cell-based; conditions: for effect on the ATP-gated current: 10 μM metal pre-applied 1 min and co-applied with 30 μM ATP; for washout period sufficient to restore normal response: after 10 μM metal
P2X2a-C430S [5] = molecular target: T3, P2X2a-C430S (Rattus norvegicus, UniProt P49653, C430S); assay type: cell-based; conditions: oocytes; for potentiation compared to wild type P2X2aR: copper or zinc
T3 sequence (P49653 1-472 C430S): T2 sequence (P49653 1-472) with C430S

P2X4/2a chimera = assay type: cell-based, rat; conditions: oocytes; for effect on deactivation constant: copper or zinc
P2X2a-C430S [6] = molecular target: T3, P2X2a-C430S; assay type: cell-based; conditions: HEK293 cells
P2X2a-C430A = molecular target: T4, P2X2a-C430A (Rattus norvegicus, UniProt P49653, C430A); assay type: cell-based; conditions: oocytes; for potentiation compared to wild type P2X2aR: zinc or copper
T4 sequence (P49653 1-472 C430A): T2 sequence (P49653 1-472) with C430A

P2X4/2b chimera = assay type: cell-based, rat; conditions: oocytes
P2X4R = molecular target: T5, P2X4R (Rattus norvegicus, UniProt P51577); assay type: cell-based; conditions: oocytes; for effect on ATP-induced currents: 10 μM metal pre-applied 1 min and co-applied with 10 μM ATP
T5 sequence (P51577 1-388): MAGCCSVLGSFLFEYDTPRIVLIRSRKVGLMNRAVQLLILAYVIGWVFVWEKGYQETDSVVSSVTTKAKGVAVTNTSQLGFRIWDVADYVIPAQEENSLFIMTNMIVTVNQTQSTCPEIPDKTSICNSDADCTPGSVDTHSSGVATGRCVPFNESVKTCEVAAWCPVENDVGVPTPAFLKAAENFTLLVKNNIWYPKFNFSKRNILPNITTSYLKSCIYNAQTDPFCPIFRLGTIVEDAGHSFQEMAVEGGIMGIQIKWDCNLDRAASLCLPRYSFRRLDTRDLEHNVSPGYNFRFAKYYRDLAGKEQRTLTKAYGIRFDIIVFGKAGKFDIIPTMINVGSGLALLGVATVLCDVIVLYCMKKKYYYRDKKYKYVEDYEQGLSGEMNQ

[7] = saturating concentration of ATP

Compound: CO/C(=C/C(N)=O)[C@H](C)[C@H](/C=C/c1csc(-c2csc([C@@H](C)/C=C/C=C/C(C)C)n2)n1)OC [myxothiazol]
- sensitivity to myxothiazol (P2X2bR [1]): insensitive
- increase of ATP-evoked currents (P2X2aR [2]; 100 nM myxothiazol, 3 μM ATP): 1.95 ± 0.14 fold
- effect on P2X2R-mediated currents (P2X2R): transient increase followed by sustained inhibition
- sensitivity to myxothiazol (P2X2bR [3]): insensitive
- effect of higher concentrations on receptor activity (biphasic) (P2X2aR [4]; higher concentrations, data not shown, expression system not given): inhibited the receptor activity
- maximal potentiation of ATP-evoked currents (P2X2aR [4]; myxothiazol applied 10 min prior to ATP, oocytes): 1.95 ± 0.18 fold

Compound: Nc1ncnc2c1ncn2[C@@H]1O[C@H](COP(=O)([O-])OP(=O)([O-])OP(=O)([O-])O)[C@@H](O)[C@H]1O.[Na+].[Na+].[Na+] [ATP, ATP tri sodium salt]
- EC50 (P2X2bR [1]; ATP alone, Hill equation): 59.2 ± 9.1 µM
- nH (P2X2bR [1]; ATP): 1.4 ± 0.3
- Imax (P2X2bR [1]; [7]): 15.6 ± 1.9 μA
- nH (P2X2aR [2]; ATP): 1.2 ± 0.2
- EC50 (P2X2aR [2]; ATP alone, Hill equation): 10.2 ± 1.3 µM
- Imax (P2X2aR [2]; [7]): 4.6 ± 0.3 nA
- EC50 (P2X2bR [3]; ATP alone, Hill equation): 7.6 ± 1.3 µM
- nH (P2X2bR [3]; ATP): 1.1 ± 0.3
- Imax (P2X2bR [3]; [7]): 4.2 ± 0.9 nA
- EC50 (P2X2a-C430S [5]; ATP alone, Hill equation): 45 ± 6.3 µM
- nH (P2X2a-C430S [5]; ATP): 1.4 ± 0.3
- Imax (P2X2a-C430S [5]; [7]): 11.8 ± 0.8 μA
- 10–90% deactivation time (P2X4/2a chimera; ATP alone (before mercury)): 12.6 ± 1.1 s
- EC50 (P2X4/2a chimera; ATP alone, Hill equation): 4.8 ± 0.6 µM
- nH (P2X4/2a chimera; ATP): 0.9 ± 0.2
- Imax (P2X4/2a chimera; [7]): 6.7 ± 1.5 μA
- EC50 (P2X2a-C430S [6]; ATP alone, Hill equation): 18.1 ± 3.3 µM
- nH (P2X2a-C430S [6]; ATP): 1.5 ± 0.6
- Imax (P2X2a-C430S [6]; [7]): 5.4 ± 0.9 nA
- EC50 (P2X2a-C430A; ATP alone, Hill equation): 293 ± 70 µM
- nH (P2X2a-C430A; ATP): 1.2 ± 0.3
- reduction of ATP potency compared to the wild type (P2X2a-C430A): 10 fold
- Imax (P2X2a-C430A; [7]): 1.2 ± 0.5 μA
- 10–90% deactivation time (P2X2aR [4]; ATP alone (before mercury), oocytes): 4.4 ± 0.2 s
- EC50 (P2X2aR [4]; ATP alone, Xenopus laevis oocytes, Hill equation): 33.3 ± 2.5 µM
- nH (P2X2aR [4]; ATP, oocytes, Hill equation): 1.4 ± 0.1
- Imax (P2X2aR [4]; saturating concentration of ATP, oocytes): 12.1 ± 2.9 μA
- EC50 (P2X4/2b chimera; ATP alone, Hill equation): 4.6 ± 2.4 µM
- nH (P2X4/2b chimera; ATP): 1.2 ± 0.1
- Imax (P2X4/2b chimera; [7]): 14.0 ± 1.5 μA
- EC50 (P2X4R; ATP alone, Hill equation): 11 ± 2.6 µM
- Imax (P2X4R; [7]): 4.7 ± 0.6 μA

Compound: C=C(C)[C@H]1Cc2c(ccc3c2O[C@@H]2COc4cc(OC)c(OC)cc4[C@@H]2C3=O)O1 [rotenone]
- potentiation by rotenone (P2X2bR [1]; 600 nM): not observed
- fold-increase of the ATP-evoked currents (P2X2aR [2]; 600 nM rotenone): 1.52 ± 0.08 fold
- effect on P2X2R-mediated currents (P2X2R): transient increase followed by sustained inhibition
- potentiation by rotenone (P2X2bR [3]; 600 nM): not observed
- fold-increase of the ATP-evoked currents (P2X2aR [4]; 600 nM rotenone, 10 min prior to ATP, oocytes): 1.75 ± 0.38 fold

Compound: [Cl-].[Cl-].[Zn+2] [zinc]
- potentiation compared to wild type P2X2aR (P2X2a-C430S [5]): not changed
- potentiation of 1 μM ATP-induced current (P2X4/2a chimera; 10 μM metal, 1 μM ATP): 2.6 ± 0.3 fold
- effect on deactivation constant (P2X4/2a chimera): did not modify significantly
- potentiation compared to wild type P2X2aR (P2X2a-C430A): not significantly altered
- effect on the ATP-gated current (P2X2aR [4]; oocytes): potentiated
- washout period sufficient to restore normal response (P2X2aR [4]; oocytes): ≤ 10 min
- potentiation of receptor activity (P2X4/2b chimera; 10 μM zinc, 1 μM ATP): 2.6 ± 0.3 fold
- effect on ATP-induced currents (P2X4R): potentiated

Compound: CSS(C)(=O)=O [MMTS, Methylmethane-thiosulfonate]
- effect on H2O2 potentiation (P2X2aR [4]): abolished
- current increase by agent alone (transient and reversible) (P2X2aR [4]; MMTS alone, oocytes, data not shown): 20%
- effect on mercury-induced potentiation (P2X2aR [4]; MMTS treatment, oocytes): abolished

Compound: [Cl][Cu][Cl] [copper]
- increase of ATP-evoked currents (P2X2aR [2]; 10 μM metal, ATP ~EC15): 4.5 ± 0.5 fold
- increase of ATP-gated currents (P2X2bR [3]; 10 μM metal, ATP ~EC15): 5.7 ± 1.5 fold
- potentiation compared to wild type P2X2aR (P2X2a-C430S [5]): not changed
- inhibition of ATP-evoked currents (P2X4/2a chimera; 10 μM copper, 1 μM ATP): 50%
- effect on deactivation constant (P2X4/2a chimera): did not modify significantly
- decrease of maximal ATP response (P2X4/2a chimera; copper, not shown): 40%
- increase of ATP-gated currents (P2X2a-C430S [6]; 10 μM metal, ATP ~EC15): 4.2 ± 0.9 fold
- potentiation compared to wild type P2X2aR (P2X2a-C430A): not significantly altered
- increase of 10–90% deactivation time (P2X2aR [4]): 2 fold
- effect on the ATP-gated current (P2X2aR [4]; oocytes): potentiated
- washout period sufficient to restore normal response (P2X2aR [4]; oocytes): ≤ 10 min
- inhibition of ATP-evoked currents (P2X4/2b chimera; 10 μM copper, 1 μM ATP): 55 ± 12%
- effect on ATP-induced currents (P2X4R): inhibited

Compound: O[C@@H](CS)[C@@H](O)CS (racemic) [DTT, dithiothreitrol]
- effect on ATP-evoked currents (P2X2aR [4]; 1 mM DTT alone, oocytes): did not modify the ATP-evoked currents
- effect of co-application with H2O2 (P2X2aR [4]; DTT co-applied with H2O2, oocytes): abolished the effect of H2O2
- effect on receptor activity (P2X4R; DTT alone): did not modify the receptor activity
- effect of co-application with H2O2 (P2X4R; DTT co-applied with H2O2): the inhibition was completely obliterated
